What was measured:
[1] = tested on: 22Rv1 Cell; experiment: 22RV1 cell growth inhibition, CellTiter-Glo, 72 h; assay type: cell-based; conditions: 22RV1 cells, 72 h culture
Description: (§1) 22RV1 or vCap cells were cultured in RPMI-1640 medium (10% fetal bovine serum and 100 units (per mL) of penicillin/streptomycin dual antibody were added to RPMI-1640) in a 37° C., 5% CO2 cell incubator. Cells at the logarithmic growth phase were inoculated onto a 96-well cell culture plate at 5×10^3 cells/100 μL/well and cultured overnight. Solutions of different concentrations of an active compound in DMSO were added, with the final concentration being 0.5% DMSO. The positive control was 1% TweeN2O, and the negative control was 0.5% DMSO. After 72 h of culture, an equal volume of CellTiter-Glo was added to each well, and the mixtures were mixed homogeneously by shaking for 2 min. The plate was let stand at room temperature for 10 min, and fluorescence signal values were read using a microplate reader. Data were analyzed using Prism 7.0 and graphs were generated. The values are shown as mean f SEM (N=2). […] The X-axis represents compound concentration (μM), and the Y-axis represents % inhibition.

[2] = tested on: vCap Cell; experiment: vCap cell growth inhibition, CellTiter-Glo, 72 h; assay type: cell-based; conditions: vCap cells, 72 h culture
Description: as §1

| IC50 ([1]; Homo sapiens, 22Rv1, 72 h) [nM] | IC50 ([2]; Homo sapiens, VCaP, 72 h) [nM] | IC50 [1] [nM] | IC50 [2] [nM] | SMILES |
| --- | --- | --- | --- | --- |
| > 1000 | > 1000 |  |  | CC(=O)N1Cc2cc(C3CCN(C(=O)C4CN(C)C4)CC3)cc(N3CCCc4cc(-c5cnn(C)c5)c(C(F)F)cc43)c2C1 [Compound M001086] |
| < 1000 | < 1000 |  |  | CC(=O)N1Cc2cc(C3CCC(=O)N(CC(C)(C)O)C3)cc(N3CCCc4cc(-c5cnn(C)c5)c(C(F)F)cc43)c2C1 (centres unmarked) [Compound M001231] |
| > 1000 | > 1000 |  |  | CC(=O)N1Cc2cc(-c3cc[nH]c(=O)c3)cc(N3CCCc4cc(-c5cnn(C)c5)c(C(F)F)cc43)c2C1 [Compound M001156] |
| > 1000 | > 1000 |  |  | CNC(=O)N1Cc2cc(C3CCN(C)C(=O)C3)cc(N3CCCc4cc(-c5cnn(C)c5)c(C(F)F)cc43)c2C1 (centres unmarked) [Compound M001119] |
| > 1000 | > 1000 |  |  | CON1CCC(c2cc3c(c(N4CCCc5cc(-c6cnn(C)c6)c(C(F)F)cc54)c2)CN(C(=O)OC(C)(C)C)C3)CC1 [Compound M001275] |
| > 1000 | > 1000 |  |  | CNC(=O)N1Cc2cc(-c3cc[nH]c(=O)c3)cc(N3CCCc4cc(-c5cnn(C)c5)c(C(F)F)cc43)c2C1 [Compound M001155] |
| > 1000 | > 1000 |  |  | CNC(=O)N1CCc2cc(Cl)cc(N3CCCc4cc(-c5cnn(C)c5)c(C(F)F)cc43)c2C1 [Compound M001209] |
| > 1000 | > 1000 |  |  | CC(=O)N1Cc2cc(-c3ccn(C)c(=O)c3)cc(N3CCCc4cc(-c5cnn(C)c5)c(C(F)F)cc43)c2C1 [Compound M001128] |
| < 1000 | < 1000 |  |  | CC(=O)N1Cc2cc(C3CCN(C(=O)c4ccccc4)CC3)cc(N3CCCc4cc(-c5cnn(C)c5)c(C(F)F)cc43)c2C1 [Compound M001081] |
|  |  | > 1000 | > 1000 | COC1CCC(c2cc3c(c(N4CCCc5cc(-c6cnn(C)c6)c(C(F)F)cc54)c2)CN(C(C)=O)CC3)CC1 (centres unmarked) [Compound M001197] |
| > 1000 | > 1000 |  |  | CNC(=O)N1Cc2cc(C3CCN(C(=O)C4CC4)CC3)cc(N3CCCc4cc(-c5cnn(C)c5)c(C(F)F)cc43)c2C1 [Compound M001162] |
| < 1000 | < 1000 |  |  | CNC(=O)N1CCc2cc([C@@H]3CCC(=O)N(C)C3)cc(N3CCCc4cc(-c5cnn(C)c5)c(C(F)F)cc43)c2C1 [Compound M001235] |
| > 1000 | > 1000 |  |  | CNC(=O)N1CCc2cc(C3CCN(C(C)=O)C3)cc(N3CCCc4cc(-c5cnn(C)c5)c(C(F)F)cc43)c2C1 (centres unmarked) [Compound M001054] |
| < 1000 | < 1000 |  |  | CCN1CCC(c2cc3c(c(N4CCCc5cc(-c6cnn(C)c6)c(C(F)F)cc54)c2)CN(C(=O)NC)CC3)CC1=O (centres unmarked) [Compound M001186] |
| > 1000 | < 1000 |  |  | CNC(=O)N1CCc2cc(C3CCC(O)CC3)cc(N3CCCc4cc(-c5cnn(C)c5)c(C(F)F)cc43)c2C1 (centres unmarked) [Compound M001180] |
| > 1000 | > 1000 |  |  | CCN1CCC(c2cc3c(c(N4CCCc5cc(-c6cnn(C)c6)c(C(F)F)cc54)c2)CN(C(C)=O)CCC3)CC1=O (centres unmarked) [Compound M001264] |
|  |  | > 1000 | > 1000 | CC(=O)N1Cc2cc(C3CCC(S(C)(=N)=O)CC3)cc(N3CCCc4cc(-c5cnn(C)c5)c(C(F)F)cc43)c2C1 (centres unmarked) [Compound M001327] |
| < 1000 | > 1000 |  |  | CNC(=O)N1CCc2cc(C3CCN(CC(C)(C)O)C(=O)C3)cc(N3CCCc4cc(-c5cnn(C)c5)c(C(F)F)cc43)c2C1 (centres unmarked) [Compound M001280] |
| > 1000 | > 1000 |  |  | CNC(=O)N1CCc2cc(C3CCC(OC)CC3)cc(N3CCCc4cc(-c5cnn(C)c5)c(C(F)F)cc43)c2C1 (centres unmarked) [Compound M001198] |
|  |  | > 1000 | > 1000 | CC(=O)N1Cc2cc(C3CCC([S@@](C)(=N)=O)CC3)cc(N3CCCc4cc(-c5cnn(C)c5)c(C(F)F)cc43)c2C1 (some centres unmarked) [Compound M001329] |

| IC50 ([1]; Homo sapiens, 22Rv1, 72 h) [nM] | IC50 ([2]; Homo sapiens, VCaP, 72 h) [nM] | IC50 [1] [nM] | IC50 [2] [nM] | SMILES |
| --- | --- | --- | --- | --- |
| > 1000 | > 1000 |  |  | Cn1cc(-c2cc3c(cc2C(F)F)N(c2cccc4c2CN(C(N)=O)CCC4)CCC3)cn1 [Compound M001213] |
| > 1000 | > 1000 |  |  | CON[C@H]1CC[C@H](c2cc3c(c(N4CCCc5cc(-c6cnn(C)c6)c(C(F)F)cc54)c2)CN(C(C)=O)C3)CC1 [Compound M001341] |
| < 1000 | < 1000 |  |  | CC(=O)N1Cc2cc(C3CCC(S(C)(=N)=O)CC3)cc(N3CCCc4cc(-c5cnn(C)c5)c(C(F)F)cc43)c2C1 (centres unmarked) [Compound M001297, (4-(2-acetyl-7-(7-(difluoromethyl)-6-(1-methyl-1H-pyrazol-4-yl)-3,4-dihydroquinolin-1(2H)-yl)isoindol-5-yl)cyclohexyl)(imino)(methyl)-16-sulfanone] |
| > 1000 | > 1000 |  |  | CC(=O)N1Cc2cc(C3CCN(C(=O)C4CCNC4)CC3)cc(N3CCCc4cc(-c5cnn(C)c5)c(C(F)F)cc43)c2C1 (centres unmarked) [Compound M001080] |
| > 1000 | > 1000 |  |  | COC(=O)N1CCc2cc(C3CCC(=O)N(CC(C)(C)O)C3)cc(N3CCCc4cc(-c5cnn(C)c5)c(C(F)F)cc43)c2C1 (centres unmarked) [Compound M001272] |
| > 1000 | > 1000 |  |  | CNC(=O)N1Cc2cc(-c3ccc(OC)cc3)cc(N3CCCc4cc(-c5cnn(C)c5)c(C(F)F)cc43)c2C1 [Compound M001121] |
| > 1000 | > 1000 |  |  | CC(=O)N1CCc2cc(C3CCNC(=O)C3)cc(N3CCCc4cc(-c5cnn(C)c5)c(C(F)F)cc43)c2C1 (centres unmarked) [Compound M001142] |
| < 1000 | < 1000 |  |  | CCN1CC(c2cc3c(c(N4CCCc5cc(-c6cnn(C)c6)c(C(F)F)cc54)c2)CN(C(C)=O)C3)CCC1=O (centres unmarked) [Compound M001224] |
| > 1000 | > 1000 |  |  | CC(=O)N1Cc2cc(C3CCN(C)C3)cc(N3CCCc4cc(-c5cnn(C)c5)c(C(F)F)cc43)c2C1 (centres unmarked) [Compound M001047] |
| > 1000 | > 1000 |  |  | CC(=O)N1Cc2cc(C3CCN(C(=O)C4CC4)CC3)cc(N3CCCc4cc(-c5cnn(C)c5)c(C(F)F)cc43)c2C1 [Compound M001072] |
| < 1000 | < 1000 |  |  | CNC(=O)N1CCc2cc(C3CCN(C)C(=O)C3)cc(N3CCCc4cc(-c5cnn(C)c5)c(C(F)F)cc43)c2C1 (centres unmarked) [Compound M001124, 8-(7-(difluoromethyl)-6-(1-methyl-1H-pyrazol-4-yl)-3,4-dihydroquinolin-1(2H)-yl)-N-methyl-6-(1-methyl-2-oxopiperidin-4-yl)-3,4H-dihydroisoquinoline-2(1H)-carboxamide] |
| > 1000 | > 1000 |  |  | CC(=O)N1Cc2cc(C3CCCN(C)C3)cc(N3CCCc4cc(-c5cnn(C)c5)c(C(F)F)cc43)c2C1 (centres unmarked) [Compound M001049] |
| > 1000 | < 1000 |  |  | CNC(=O)N1CCc2cc([C@H]3CC[C@@H](NS(C)(=O)=O)CC3)cc(N3CCCc4cc(-c5cnn(C)c5)c(C(F)F)cc43)c2C1 [Compound M001313] |
| > 1000 | > 1000 |  |  | Cn1cc(-c2cc3c(cc2C(F)F)N(c2cccc4c2CNC(=O)CC4)CCC3)cn1 [Compound M001215, 9-[7-(difluoromethyl)-6-(1-methylpyrazol-4-yl)-3,4-dihydro-2H-quinolin-1-yl]-1,2,4,5-tetrahydro-2-benzazepin-3-one] |
| > 1000 | > 1000 |  |  | CC(=O)N1CCc2cc(Cl)cc(N3CCCc4cc(-c5cnn(C)c5)c(C(F)F)cc43)c2C1 [Compound M001208] |
| > 1000 | < 1000 |  |  | CC(=O)N1Cc2cc(C3CCC([S+](C)[O-])CC3)cc(N3CCCc4cc(-c5cnn(C)c5)c(C(F)F)cc43)c2C1 (centres unmarked) [Compound M001323] |
| < 1000 | < 1000 |  |  | CNC(=O)N1CCc2cc(C3CCN(CCOC)C(=O)C3)cc(N3CCCc4cc(-c5cnn(C)c5)c(C(F)F)cc43)c2C1 (centres unmarked) [Compound M001188] |
| > 1000 | > 1000 |  |  | CC(=O)N1Cc2cc(C3CCNC3)cc(N3CCCc4cc(-c5cnn(C)c5)c(C(F)F)cc43)c2C1 (centres unmarked) [Compound M001046] |
| > 1000 | > 1000 |  |  | CNC(=O)N1CCc2cc(C3CCN(C4COC4)CC3)cc(N3CCCc4cc(-c5cnn(C)c5)c(C(F)F)cc43)c2C1 [Compound M001059] |
| > 1000 | > 1000 |  |  | CNC(=O)N1Cc2cc(C3CCC(F)(F)CC3)cc(N3CCCc4cc(-c5cnn(C)c5)c(C(F)F)cc43)c2C1 [Compound M001094] |

| SMILES | IC50 ([1]; Homo sapiens, 22Rv1, 72 h) [nM] | IC50 ([2]; Homo sapiens, VCaP, 72 h) [nM] | IC50 [1] [nM] | IC50 [2] [nM] |
| --- | --- | --- | --- | --- |
| CNC(=O)N1Cc2cc(C3CC4CCC(C3)N4C(=O)NC)cc(N3CCCc4cc(-c5cnn(C)c5)c(C(F)F)cc43)c2C1 (centres unmarked) [Compound M001116] | > 1000 | > 1000 |  |  |
| CNC(=O)N1C2CCC1CC(c1cc3c(c(N4CCCc5cc(-c6cnn(C)c6)c(C(F)F)cc54)c1)CN(C(C)=O)C3)C2 (centres unmarked) [Compound M001129] | < 1000 | < 1000 |  |  |
| CNC(=O)N1Cc2cc(C3CC4CCC(C3)N4)cc(N3CCCc4cc(-c5cnn(C)c5)c(C(F)F)cc43)c2C1 (centres unmarked) [Compound M001099] | > 1000 | > 1000 |  |  |
| CNC(=O)N1CCc2cc(C3CC4CCC(C3)N4)cc(N3CCCc4cc(-c5cnn(C)c5)c(C(F)F)cc43)c2C1 (centres unmarked) [Compound M001089] | > 1000 | > 1000 |  |  |
| COC(=O)N1C2CCC1CC(c1cc3c(c(N4CCCc5cc(-c6cnn(C)c6)c(C(F)F)cc54)c1)CN(C(C)=O)C3)C2 (centres unmarked) [Compound M001132] | > 1000 | < 1000 |  |  |
| CNC(=O)N1CCc2cc(C3CC4CCC(C3)N4C)cc(N3CCCc4cc(-c5cnn(C)c5)c(C(F)F)cc43)c2C1 (centres unmarked) [Compound M001035] | > 1000 | > 1000 |  |  |
